# Laboratory results: publication PMC11791039, “A split intein and split luciferase-coupled system for detecting protein-protein interactions” (Molecular Systems Biology, 2024)
# Values joined by “and” are separate entries in the source; they are usually repeats but may differ in a detail not shown here. Identical values can stand only once. Like-named read-outs stand apart in the source and are kept apart here. Residues, ends and D or L forms follow the SMILES beside them. *: point of attachment. Cbz = O=C(OCc1ccccc1)*
# Columns and labels:
# BRD4/CRBN interaction = target: T1, BRD4/CRBN interaction (Homo sapiens, UniProt O60885+Q96SW2); assay: SIMPL2 assay CRBN/BRD4 (PROTAC); format: cell-based; details: MG132 1 μM, ARV-825 3 h
# T1 construct: β10-IN (tNLuc β10 peptide + GP41-1 split intein N fragment) (N); V5; IC-β9 (GP41-1 split intein C fragment + tNLuc β9 peptide) (N); FLAG; expressed in transfected cells
# T1 sequence (Q96SW2 whole entry, the tested form may be a part): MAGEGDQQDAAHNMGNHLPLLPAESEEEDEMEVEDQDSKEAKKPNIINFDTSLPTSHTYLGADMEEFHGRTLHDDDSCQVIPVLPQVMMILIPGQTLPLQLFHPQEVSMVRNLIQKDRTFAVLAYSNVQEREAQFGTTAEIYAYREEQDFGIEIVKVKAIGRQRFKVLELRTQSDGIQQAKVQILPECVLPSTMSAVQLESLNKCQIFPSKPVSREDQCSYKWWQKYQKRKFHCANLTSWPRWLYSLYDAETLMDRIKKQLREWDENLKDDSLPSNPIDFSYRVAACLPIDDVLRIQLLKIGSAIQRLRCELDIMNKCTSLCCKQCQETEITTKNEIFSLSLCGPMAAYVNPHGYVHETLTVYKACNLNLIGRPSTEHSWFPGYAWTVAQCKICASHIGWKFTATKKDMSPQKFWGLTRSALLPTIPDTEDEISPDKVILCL
# T1 sequence (Q16531 whole entry, further chain, the tested form may be a part): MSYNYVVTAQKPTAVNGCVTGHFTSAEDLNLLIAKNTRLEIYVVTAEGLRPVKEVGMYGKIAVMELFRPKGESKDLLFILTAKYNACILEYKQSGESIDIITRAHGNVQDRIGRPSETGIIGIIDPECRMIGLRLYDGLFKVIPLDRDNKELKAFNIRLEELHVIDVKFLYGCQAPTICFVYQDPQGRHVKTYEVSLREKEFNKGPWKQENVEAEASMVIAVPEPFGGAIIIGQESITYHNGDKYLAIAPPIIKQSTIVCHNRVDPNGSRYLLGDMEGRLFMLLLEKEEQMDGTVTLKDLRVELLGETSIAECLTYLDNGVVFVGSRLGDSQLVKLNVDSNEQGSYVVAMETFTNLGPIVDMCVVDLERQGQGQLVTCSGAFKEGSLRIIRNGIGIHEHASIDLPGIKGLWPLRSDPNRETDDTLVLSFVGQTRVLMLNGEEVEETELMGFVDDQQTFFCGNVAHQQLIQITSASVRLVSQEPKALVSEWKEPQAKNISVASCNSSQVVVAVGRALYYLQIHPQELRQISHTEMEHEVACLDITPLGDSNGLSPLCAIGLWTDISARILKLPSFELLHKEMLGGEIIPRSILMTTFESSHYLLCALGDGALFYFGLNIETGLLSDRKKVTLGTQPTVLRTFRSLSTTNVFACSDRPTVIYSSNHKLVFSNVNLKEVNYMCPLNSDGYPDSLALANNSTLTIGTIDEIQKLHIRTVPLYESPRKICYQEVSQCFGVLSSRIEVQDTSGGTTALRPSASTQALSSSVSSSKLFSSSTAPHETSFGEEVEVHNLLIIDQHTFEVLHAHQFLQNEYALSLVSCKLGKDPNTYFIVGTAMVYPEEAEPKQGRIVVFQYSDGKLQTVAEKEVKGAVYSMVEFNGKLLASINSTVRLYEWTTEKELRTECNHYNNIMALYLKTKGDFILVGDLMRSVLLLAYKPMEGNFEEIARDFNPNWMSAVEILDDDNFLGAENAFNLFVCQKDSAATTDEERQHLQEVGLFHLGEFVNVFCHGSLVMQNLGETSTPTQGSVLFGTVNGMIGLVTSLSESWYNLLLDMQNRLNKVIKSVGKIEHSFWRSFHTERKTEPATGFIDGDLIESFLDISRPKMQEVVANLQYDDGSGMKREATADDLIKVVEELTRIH
# FRB/FKBP1A interaction [1] = target: T2, FRB/FKBP1A interaction (Homo sapiens, UniProt P42345+P62942); assay: NanoBiT assay, rapamycin-mediated FRB/FKBP1A interaction; format: cell-based; details: 2 h, expt 1-4
# T2 sequence (P42345 2012-2144 limits assumed): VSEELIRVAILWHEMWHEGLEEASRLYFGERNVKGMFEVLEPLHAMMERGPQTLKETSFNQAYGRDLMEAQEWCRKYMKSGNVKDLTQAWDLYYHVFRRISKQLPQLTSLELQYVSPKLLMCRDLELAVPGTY
# T2 sequence (P62942 whole entry): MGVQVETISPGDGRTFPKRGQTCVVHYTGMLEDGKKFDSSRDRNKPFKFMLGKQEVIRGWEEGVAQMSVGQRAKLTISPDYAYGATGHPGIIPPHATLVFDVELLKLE
# FRB/FKBP1A interaction [2] = target: T2, FRB/FKBP1A interaction; parameters: method as in previous study; details: replicates 1-4, ref previous study, cited from earlier work; for ELISA signal (Fig. EV1B): IN/IC format; for ELISA_CIC signal (Fig. EV1C): NIN/IC format
# FRB/FKBP1A interaction [3] = target: T2, FRB/FKBP1A interaction; assay: SIMPL2 assay, rapamycin-mediated FRB/FKBP1A interaction; details: for SIMPL2 signal (Fig. EV1B): IN/IC format, replicates 1-4; for SIMPL2(%) (Fig. EV1C): NIN/IC format, replicates 1-3; for SIMPL2 signal (Fig. 1D source data): 2 h, expt 1-4
compound,measurement,setting,value
CC(C)C[C@@H](C=O)NC(=O)[C@H](CC(C)C)NC(=O)[C@H](CC(C)C)NC(=O)OCc1ccccc1 [MG132] (Cbz-Leu-Leu-Leu-aldehyde),effect of MG132 co-treatment on ARV-825 SIMPL2 signals,BRD4/CRBN interaction,profoundly enhanced
"CO[C@H]1C[C@@H]2CC[C@@H](C)[C@@](O)(O2)C(=O)C(=O)N2CCCC[C@H]2C(=O)O[C@H]([C@H](C)C[C@@H]2CC[C@@H](O)[C@H](OC)C2)CC(=O)[C@H](C)/C=C(\C)[C@@H](O)[C@@H](OC)C(=O)[C@H](C)C[C@H](C)/C=C/C=C/C=C/1C [rapamycin, Rapamycin]",NanoBiT signal (Fig. 1D source data),FRB/FKBP1A interaction [1]; Rapa 0.004115 uM,43.0075 and 49.8338 and 39.8143 and 26.5473
same,NanoBiT signal (Fig. 1D source data),FRB/FKBP1A interaction [1]; Rapa 0.037037 uM,98.7034 and 104.835 and 107.555 and 86.8025
same,NanoBiT signal (Fig. 1D source data),FRB/FKBP1A interaction [1]; Rapa 0.111111 uM,98.0138 and 85.7365 and 105.867 and 81.894
same,NanoBiT signal (Fig. 1D source data),FRB/FKBP1A interaction [1]; Rapa 0.333333 uM,102.818 and 83.4071 and 80.4272 and 114.561
same,NanoBiT signal (Fig. 1D source data),FRB/FKBP1A interaction [1]; Rapa 1 uM,95.0191 and 104.766 and 93.7327 and 91.3484
same,ELISA signal (Fig. EV1B),FRB/FKBP1A interaction [2]; Rapa 0.316 nM,14.411 and 5.166 and 5.566 and 4.9879
same,ELISA signal (Fig. EV1B),FRB/FKBP1A interaction [2]; Rapa 1 nM,5.323 and 5.028 and 5.963 and 6.1023
same,ELISA signal (Fig. EV1B),FRB/FKBP1A interaction [2]; Rapa 3.162 nM,8.457 and 7.647 and 8.056 and 8.736
same,ELISA signal (Fig. EV1B),FRB/FKBP1A interaction [2]; Rapa 10 nM,15.9974 and 15.1146 and 16.574 and 16.0467
same,ELISA signal (Fig. EV1B),FRB/FKBP1A interaction [2]; Rapa 31.623 nM,37.8238 and 37.9493 and 40.1437 and 41.1072
same,ELISA signal (Fig. EV1B),FRB/FKBP1A interaction [2]; Rapa 100 nM,80.3098 and 67.0371 and 79.2492 and 77.5358
same,ELISA signal (Fig. EV1B),FRB/FKBP1A interaction [2]; Rapa 316.228 nM,106.072 and 95.5962 and 92.0797 and 90.9967
same,ELISA signal (Fig. EV1B),FRB/FKBP1A interaction [2]; Rapa 1000 nM,102.194 and 105.027 and 90.2049 and 93.6363
same,ELISA_CIC signal (Fig. EV1C),FRB/FKBP1A interaction [2]; Rapa 0.3 nM,3.444 and 2.886 and 2.936 and 2.873
same,ELISA_CIC signal (Fig. EV1C),FRB/FKBP1A interaction [2]; Rapa 1 nM,3.091 and 2.372 and 3.062 and 3.035
same,ELISA_CIC signal (Fig. EV1C),FRB/FKBP1A interaction [2]; Rapa 3 nM,3.502 and 3.836 and 3.666 and 4.333
same,ELISA_CIC signal (Fig. EV1C),FRB/FKBP1A interaction [2]; Rapa 10 nM,6.943 and 6.073 and 6.559 and 6.143
same,ELISA_CIC signal (Fig. EV1C),FRB/FKBP1A interaction [2]; Rapa 30 nM,20.4969 and 16.4946 and 19.9923 and 21.7284
same,ELISA_CIC signal (Fig. EV1C),FRB/FKBP1A interaction [2]; Rapa 100 nM,72.9918 and 58.0659 and 78.6932 and 64.2948
same,ELISA_CIC signal (Fig. EV1C),FRB/FKBP1A interaction [2]; Rapa 300 nM,105.102 and 112.879 and 88.9461
same,ELISA_CIC signal (Fig. EV1C),FRB/FKBP1A interaction [2]; Rapa 1000 nM,95.1776 and 93.559 and 93.0646 and 80.9326
same,SIMPL2 signal (Fig. EV1B),FRB/FKBP1A interaction [3]; Rapa 0.0508 nM,1.191 and 2.558 and 1.039 and 2.309
same,SIMPL2 signal (Fig. EV1B),FRB/FKBP1A interaction [3]; Rapa 0.152 nM,2.258 and 4.019 and 1.902 and 3.528
same,SIMPL2 signal (Fig. EV1B),FRB/FKBP1A interaction [3]; Rapa 0.457 nM,5.806 and 9.209 and 5.031 and 7.8055
same,SIMPL2 signal (Fig. EV1B),FRB/FKBP1A interaction [3]; Rapa 1.372 nM,16.8705 and 22.7506 and 15.2406 and 19.2387
same,SIMPL2 signal (Fig. EV1B),FRB/FKBP1A interaction [3]; Rapa 4.115 nM,40.6804 and 51.3157 and 39.8638 and 45.1426
same,SIMPL2 signal (Fig. EV1B),FRB/FKBP1A interaction [3]; Rapa 37.037 nM,89.8203 and 93.2241 and 91.2356 and 88.6383
same,SIMPL2 signal (Fig. EV1B),FRB/FKBP1A interaction [3]; Rapa 111.111 nM,100.397 and 91.658 and 100.471 and 94.6121
same,SIMPL2 signal (Fig. EV1B),FRB/FKBP1A interaction [3]; Rapa 333.333 nM,99.7113 and 97.9264 and 105.182 and 96.7419
same,SIMPL2 signal (Fig. EV1B),FRB/FKBP1A interaction [3]; Rapa 1000 nM,92.6509 and 96.5256 and 102.635 and 100.443
same,SIMPL2(%) (Fig. EV1C),FRB/FKBP1A interaction [3]; Rapa 0.00188 nM,0.8086% (2×) and 0.8386%
same,SIMPL2(%) (Fig. EV1C),FRB/FKBP1A interaction [3]; Rapa 0.00565 nM,0.599% and 0.6888% and 0.7487%
same,SIMPL2(%) (Fig. EV1C),FRB/FKBP1A interaction [3]; Rapa 0.0508 nM,0.9284% and 1.198% and 0.7188%
same,SIMPL2(%) (Fig. EV1C),FRB/FKBP1A interaction [3]; Rapa 0.152 nM,1.108% and 1.6472% and 0.8685%
same,SIMPL2(%) (Fig. EV1C),FRB/FKBP1A interaction [3]; Rapa 0.457 nM,4.972% and 3.534% and 2.636%
same,SIMPL2(%) (Fig. EV1C),FRB/FKBP1A interaction [3]; Rapa 1.372 nM,23.3303% and 15.2441% and 11.9197%
same,SIMPL2(%) (Fig. EV1C),FRB/FKBP1A interaction [3]; Rapa 4.115 nM,44.1749% and 37.1968% and 29.3801%
same,SIMPL2(%) (Fig. EV1C),FRB/FKBP1A interaction [3]; Rapa 37.037 nM,91.9736% and 88.0503% and 89.0686%
same,SIMPL2(%) (Fig. EV1C),FRB/FKBP1A interaction [3]; Rapa 111.111 nM,100.449% and 91.6442% and 102.935%
same,SIMPL2(%) (Fig. EV1C),FRB/FKBP1A interaction [3]; Rapa 333.333 nM,113.267% and 99.5508% and 95.867%
same,SIMPL2(%) (Fig. EV1C),FRB/FKBP1A interaction [3]; Rapa 1000 nM,95.5076% and 93.0518% and 96.2564%
same,SIMPL2 signal (Fig. 1D source data),FRB/FKBP1A interaction [3]; Rapa 0.004115 uM,47.8958 and 45.8282 and 46.7693 and 41.1245
same,SIMPL2 signal (Fig. 1D source data),FRB/FKBP1A interaction [3]; Rapa 0.037037 uM,84.8088 and 98.4637 and 120.48 and 94.9462
same,SIMPL2 signal (Fig. 1D source data),FRB/FKBP1A interaction [3]; Rapa 0.111111 uM,73.556 and 88.7889 and 90.3886 and 92.8218
same,SIMPL2 signal (Fig. 1D source data),FRB/FKBP1A interaction [3]; Rapa 0.333333 uM,97.7898 and 102.816 and 106.133 and 97.0409
same,SIMPL2 signal (Fig. 1D source data),FRB/FKBP1A interaction [3]; Rapa 1 uM,104.171 and 101.443 and 85.3933 and 107.112
